Test results from US10716770B2, “Nicotinic receptor non-competitive antagonists” (Catalyst Biosciences, Inc., priority 2010, dated 2020).
Where two headings read alike, the source gives them in different places.

Tests used:
human α4β2 [1] = molecular target: T1, human α4β2 (Homo sapiens, UniProt P17787+P43681); test: Competition binding to human α4β2 nicotinic receptors in membrane preparations ([3H]-nicotine); settings: [3H]-nicotine competition, membranes
T1 construct: host or cells: SH-EP1

human α4β2 [2] = molecular target: T1, human α4β2; test: Calcium flux functional assay, inhibition of nicotine response in SH-EP1-human α4β2 cells; format: cell-based; settings: nicotine 1 μM
Description: (§1) SH-EP1-human α4β2 (Eaton et al., 2003), SH-EP1-human α4β4 (Gentry et al., 2003) and SH-EP1-α6β3β4α5 (Grinevich at al., 2005) cell lines were obtained from Dr. Ron Lukas (Barrow Neurological Institute). The SH-EP1 cell lines, PC12, SH-SY5Y and TE671/RD cells were maintained in proliferative growth phase in Dulbecco's modified Eagle's medium (Invitrogen, Carlsbad, Calif.) with 10% horse serum (Invitrogen), 5% fetal bovine serum (HyClone, Logan Utah), 1 mM sodium pyruvate, 4 mM L-glutamine. For maintenance of stable transfectants, the α4β2 and α4β4 cell media was supplemented with 0.25 mg/mL zeocin and 0.13 mg/mL hygromycin B. Selection was maintained for the α6β3β4α5 cells with 0.25 mg/mL of zeocin, 0.13 mg/mL of hygromycin B, 0.4 mg/mL of geneticin, and 0.2 mg/mL of blasticidin.
(§2) Twenty-four to forty-eight hours prior to each experiment, cells were plated in 96 well black-walled, clear bottom plates (Corning, Corning, N.Y.) at 60-100,000 cells/well. On the day of the experiment, growth medium was gently removed, 200 μL 1×FLIPR Calcium 4 Assay reagent (Molecular Devices, Sunnyvale, Calif.) in assay buffer (20 mM HEPES, 7 mM TRIS base, 4 mM CaCl2, 5 mM D-glucose, 0.8 mM MgSO4, 5 mM KCl, 0.8 mM MgCl2, 120 mM N-methyl D-glucamine, 20 mM NaCl, pH 7.4 for SH-EP1-human α4β2 cells or 10 mM HEPES, 2.5 mM CaCl2, 5.6 mM D-glucose, 0.8 mM MgSO4, 5.3 mM KCl, 138 mM NaCl, pH 7.4 with TRIS-base for all other cell lines) was added to each well and plates were incubated at 37° C. for 1 hour (29° C. for the 29° C.-treated SH-EP1-human α4β2 cells). For inhibition studies, competitor compound (10 pM-10 μM) was added at the time of dye addition. The plates were removed from the incubator and allowed to equilibrate to room temperature. Plates were transferred to a FLIPR Tetra fluorometric imaging plate reader (Molecular Devices) for addition of compound and monitoring of fluorescence (excitation 485 nm, emission 525 nm). The amount of calcium flux was compared to both a positive (nicotine) and negative control (buffer alone). The positive control was defined as 100% response and the results of the test compounds were expressed as a percentage of the positive control. For inhibition studies, the agonist nicotine was used at concentrations of 1 μM for SH-EP1-human α4β2 and SH-EP1-human α4β4 cells, 10 μM for PC12 and SH-SY5Y cells, and 100 μM for TE671/RD cells.

Human Ganglion = molecular target: T2, Human Ganglion (Homo sapiens, UniProt P30926+P32297); test: Calcium flux functional assay, inhibition of nicotine response at human ganglionic receptor subtype; format: cell-based; settings: read-out: Human Ganglion Ca Flux Imax
T2 construct: Human Ganglion Ca Flux IC50; Human Ganglion Ca Flux Imax
Description: as §1, §2

[3] = 29C/HS (29° C.-treated SH-EP1-human α4β2 cells)
[4] = 29C/HS (29° C.-treated SH-EP1-human α4β2 cells), read-out: Human α4β2 Ca Flux IC50 [29C/HS]
[5] = 37C/LS, read-out: Human α4β2 Ca Flux IC50 [37C/LS]
[6] = 29C/HS (29° C.-treated SH-EP1-human α4β2 cells), read-out: Human α4β2 Ca Flux Imax [29C/HS]
[7] = 37C/LS, read-out: Human α4β2 Ca Flux Imax [37C/LS]

| SMILES | Ki (human α4β2 [1]; read-out: Human α4β2 Ki) [nM] | Human α4β2 Ca Flux Imax [29C/HS] (human α4β2 [2]; [3]) [% inh] | IC50 (human α4β2 [2]; [4]) [nM] | Human α4β2 Ca Flux Imax [37C/LS] (human α4β2 [2]; 37C/LS) [% inh] | IC50 (human α4β2 [2]; [5]) [nM] | Emax (Human Ganglion) [%] | Emax (human α4β2 [2]; [6]) [%] | Emax (human α4β2 [2]; [7]) [%] | Ki (human α4β2 [1]; Human α4β2 Ki) [nM] | IC50 (human α4β2 [2]; Human α4β2 Ca Flux IC50 [37C/LS], 37C/LS) [nM] |
| --- | --- | --- | --- | --- | --- | --- | --- | --- | --- | --- |
| CN(C)C1C2(CCC2)[C@@H]2CC[C@@]1(C)C2(C)C (stereo partly drawn) [drawing 38] | 2600 | 95 | 740 | 95 | 380 | – | – | – | – | – |
| C1CN(C2C3CCC(C3)C23CCC3)C1 (stereo not drawn) | – | – | 1400 | – | 740 | 89 | 96 | 98 | – | – |
| CNC1C2CCC(C2)C12CC2 (stereo not drawn) | – | – | 2100 | – | 570 | 93 | 97 | 93 | 540 | – |
| CNC1C2(CCC2)[C@@H]2CC[C@@]1(C)C2(C)C (stereo partly drawn) [drawing 33] | > 10000 | – | 1000 | – | 600 | 95 | 97 | 95 | – | – |
| CN[C@@]1(C)[C@@H]2CC[C@@H](C2)C12CCC2 (single isomer, unassigned) [drawing 30] | > 10000 | 98 | – | 94 | – | – | – | – | – | – |
| CNC1C2(CCC2)[C@@H]2CC[C@@]1(C)C2(C)C (stereo partly drawn) [drawing 34] | > 10000 | 97 | 310 | 93 | 270 | – | – | – | – | – |
| CN[C@@]1(C)[C@@H]2CC[C@@H](C2)C12CCC2 (racemic) | 8700 | – | – | – | – | 93 | 98 | 95 | – | – |
| C1CCN(C2C3CCC(C3)C23CCC3)C1 (stereo not drawn) | 3800 | – | 1400 | – | – | 79 | 90 | 96 | – | 59 |
| CNC1(C)C2CCC(C2)C12CC2 (stereo not drawn) | > 10000 | – | 380 | – | 120 | 98 | 97 | 93 | – | – |
| CNC1C2(CCC2)[C@H]2CC[C@]1(C)C2(C)C (stereo partly drawn) [drawing 32] | 5600 | 98 | 710 | 96 | 430 | – | – | – | – | – |
| CN(C)C1C2(CCC2)[C@H]2CC[C@]1(C)C2(C)C (stereo partly drawn) [drawing 36] | > 10000 | 96 | 140 | 95 | 350 | – | – | – | – | – |
| CN(C)C1C2(CCC2)[C@H]2CC[C@]1(C)C2(C)C (stereo partly drawn) [drawing 35] | > 10000 | – | 540 | – | 520 | 98 | 96 | 97 | – | – |
| CN[C@@]1(C)[C@@H]2CC[C@@H](C2)C12CCC2 (single isomer, unassigned) [drawing 29] | > 10000 | 98 | – | 96 | – | – | – | – | – | – |
| CNC1C2(CCC2)[C@H]2CC[C@]1(C)C2(C)C (stereo partly drawn) [drawing 31] | > 10000 | – | 1300 | – | 498 | 97 | 99 | 96 | – | – |
| CN(C)C1C2CCC(C2)C12CCC2 (stereo not drawn) | 2600 | – | 1800 | – | 620 | 98 | 98 | 98 | – | – |
| CNC1(C)C2CCC(CC2)C12CCCC2 (stereo not drawn) | 300 | – | – | – | 400 | 92 | – | 95 | – | – |
| CN(C)C1C2(CCC2)[C@@H]2CC[C@@]1(C)C2(C)C (stereo partly drawn) [drawing 37] | 3200 | – | 1100 | – | 280 | 95 | 96 | 95 | – | – |
| CNC1(C)C2CCC(C2)C12CCCC2 (stereo not drawn) | > 10000 | – | 1100 | – | 120 | 96 | 99 | 100 | – | – |
| CNC1C2CCC(C2)C12CCC2 (stereo not drawn) | – | – | 1000 | – | 500 | 97 | 99 | 97 | > 10000 | – |
